How the values were obtained:
[1] = tested on: PER2 (period circadian clock 2); assay: PER genes expression in young and old HEKa, real time PCR: PER2; format: cell-based, Human; conditions: 0.5 mg/ml
Procedure: In Vitro Study of PER Genes Expression in Young and Old Human Epidermal Keratinocytes (HEKa) Using Real Time PCR Arrays. Human Epidermal Keratinocytes, (HEKa) cells (Life Technologies) from donor one and donor two are seeded at 3.0×10^5 cells/well in 12-well plates and incubated in culture medium, Keratinocyte growth medium supplemented with Mix C39016-CaCl2 solution (Promocell). For synchronization, cells were subjected to two alternative cycles of 12 hours each at 37° C. in 5% CO2 humidified air (day mode) and 33° C. in 5% CO2 humidified air (night mode). 12 hours after starting synchronization, cells are incubated with the synthetic peptide […] (PEP-1, H-[SEQ ID. NO. 2]-NH2) at 0.5 mg/ml in culture medium. Cells treated with medium alone are used as basal condition. At the end of synchronization, cell lysates are collected at 7:30 hour (early morning point). […] After RNA elution, quantification and analysis of purity of RNA samples are performed with a nanodrop (Thermo). […] SYBR Green binds to double-stranded DNA molecules and emits fluorescence which is quantified, and the fluorescence intensity is proportional to the amount of the product in the PCR reaction. […] Fold change relative to the expression of the sample genes and reference genes is calculated using normalized expression (ΔΔ(Ct)) method using CFX Manager SoftwareTM (BioRad).

JARID1A protein (KDM5A) = assay: JARID1A protein level in synchronized human keratinocytes (HaCaT), ELISA normalized to total protein; format: cell-based; conditions: 0.5 mg/ml, 7:30 hours, mean of at least six assays
Procedure: In Vitro Study of JARID1A Protein Increase Protein Level by the Peptide […] (PEP-1, H-[SEQ ID. NO. 2]-NH2) on Synchronized Human Keratinocytes Using an ELISA Assay Based on Colorimetric Detection. HaCaT cells (human keratinocyte cell line, Deutsches Krebsforschungszentrum) are seeded at a density of 200.000 cells/well (2 wells per condition) in 12-well plates. Cells are seeded in culture medium Dulbecco's Modified Eagle Medium high GlutamaxTM (Fisher Scientific) supplemented with 10% (volume/volume) Fetal Bovine Serum (Cultek). […] Nuclear extracts are assayed to quantify the level of JARID1A protein and total protein concentration. JARID1A protein is quantified using an enzyme linked immunosorbent assay (Human lysine-specific demethylase 5A (KDM5A) (CUSABIO) according to the manufacturer's protocol. In brief, JARID1A protein is detected with the antibodies provided in the kit and quantified by a colorimetric reaction. Absorbance quantification is carried out by using a microplate reader (ClarioStar®, BMG) set to 450 nm and 570 nm. For wavelength correction, readings at 570 nm were subtracted from readings at 450 nm. Total protein concentration of cell lysate is determined by using Pierce BCA Protein Assay Kit (Thermo Scientific). […] After 30 minutes of incubation at 60° C., the change in colour is measured with the absorbance microplate reader (Clariostar®, BMG) at 562 nm. […]

[2] = tested on: mitochondrial complex II (succinate-coenzyme Q reductase); assay: Mitochondrial complex II activity in human dermal fibroblasts, colorimetric assay; format: cell-based; conditions: HDFa, 24 hours
Procedure: Measurement of Increase in Mitochondrial Complex II Activity Using an Assay Based on Colorimetric Detection.
Human Dermal Fibroblasts from adult (HDFa, Life Technologies) are seeded at a density of 750.000 cells/75 cm^2 flask (one flask per condition) in culture medium M106 with Low Serum Growth Supplement (Life Technologies). Cells are grown during 7 days at 37° C. in 5% CO2 humidified air. […]. Non treated cells incubated in culture medium alone are used as basal conditions. After 24 hours of treatment, cells are detached using trypsin and resuspended in 40 ul of Phosphate buffer saline (Sigma). Total protein concentration is measured with a Pierce BCA Protein Assay Kit (BCA Assay, Thermo Scientific) following manufacturer's protocol to adjust the final protein concentration between 2500-3000 ug/ml. Briefly, standards and samples are dispensed and Working Reagent is added to the samples. After 30 minutes of incubation at 37° C., absorbance is measured with a microplate reader (Clariostar®, BMG) at 562 nm.
Mitochondrial complex II activity is measured with Complex II enzyme activity microplate assay Kit (Abcam) according to the manufacture's protocol. This assay follows the production of ubiquinol (QH2, produced by mitochondrial complex II) coupled to the reduction of a colorimetric dye (DCPIP, 2,6-diclorophenolindophenol). In brief, 50 ul of each sample (adjusted to 2500-3000 ug/ml of total protein amount) is incubated for 2 hours. After that, wells are washed several times and incubated with Activity solution provided with the kit (composed by ubiquinone, succinate and DCPIP). For the determination of mitochondrial complex II activity, colorimetric reduction of DCPIP at Optical Density (OD) 600 nm in a kinetic reaction along 30 minutes is measured with a microplate reader (Clariostar®, BMG). Results are calculated as the rate of decrease in absorbance at OD 600 nm between two points in the linear zone over time.
[…]. These values represent the mean for at least three independent assays.

Percentage of mitochondrial complex II activity relative to basal condition (%) ([2]; 0.1 mg/mL): 166.00%
Percentage of mitochondrial complex II activity relative to basal condition (%) ([2]; 0.5 mg/mL): 142.12%
Percentage of mitochondrial complex II activity relative to basal condition (%) ([2]; 1 mg/mL): 133.00%
Substance: H-Phe-Trp-Met-Lys-Arg-Lys-Arg-Val-Pro-NH2 (H-FWMKRKRVP-NH2) [PEP-1]
Fold induction at 7:30 h respect to Basal condition (%) ([1]; PER2, HEKa from donor one): 172.0%
Fold induction at 7:30 h respect to Basal condition (%) ([1]; PER2, HEKa from donor two): 292.0%
Percentage of JARID1A protein relative to basal condition (%) (JARID1A protein (KDM5A)): 126.84%

— patent publication US11896704B2, “Compounds useful for the treatment and/or care of the skin, hair, nails and/or mucous membranes” (LUBRIZOL ADVANCED MATERIALS, INC., priority 2017, dated 2024)
